The values below come from patent publication US9255110B2 (Hoffmann-La Roche Inc., priority 2010, dated 2016).

Where a name gives a salt, the structure may show the parent alone.

What all share (assay type): biochemical
The target of one experiment is IRAK-4 (Homo sapiens (Human), UniProt Q9NWZ3). Kind of experiment: In vitro IRAK-4 kinase assay. Conditions: purified recombinant IRAK-4, 50 uM ATP, 33P peptide phosphorylation. The procedure, abridged:
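Recombinant IRAK-4 or IRAK-1 incubated with 250 uM synthetic peptide in MOPS pH7.2 kinase buffer with 50 uM ATP, 20 mM MgCl2 and γ-33P ATP for the indicated time. Phosphorylated peptide captured on phosphocellulose, washed with phosphoric acid, quantified by scintillation counting.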

The target in the next experiment is human full length SYK (Homo sapiens (Human), UniProt P43405). Kind of experiment: In vitro SYK kinase assay. Conditions: 20 uM ATP, 33P peptide phosphorylation. On the procedure:
Spleen tyrosine kinase (SYK) is a tyrosine kinase that plays an important role in B cell signal transduction. SYK activity is measured by phosphorylation of a peptide substrate (Biotin-[…]) with [gamma-^33P] ATP. The enzyme reaction was conducted at 20 uM ATP with 0.05 uCi [gamma-^33P]ATP (2 uCi for 40 ul assay) and 10 uM peptide substrate at final volume of 40 ul in buffer containing 50 mM Hepes, pH 7.2, 1 mM dithiothreitol, 10 mM MgCl2, 100 uM Na3VO4, 0.1% BSA and 10% DMSO. The enzyme assay was carried out with human full length SYK in the presence or absence of ten compound concentrations. SYK and compound were pre-incubated for 10 minutes. Then, the enzymatic reaction was initiated by addition of ATP and peptide substrate. The reaction mixture was incubated at room temperature for 30 minutes. At the end of incubation, the reaction was terminated by transferring 25 ul of the reaction mixture to 100 ul of 10% streptavidin slurry containing 100 mM EDTA. The reaction product was captured on the affinity resin and sequentially washed on a filtration plate (Millipore, MABVNOB50) with 2M NaCl, 2M M NaCl in 1% phosphoric acid and water to remove free radio nucleotide. Then the incorporation of ^33P into peptide substrate was quantified on a microplate scintillation counter. Compound inhibition potency on SYK was measured by IC50 value generated from ten concentration inhibition curve fitted into the 3-parameter model: % inhibition=Maximum/(1+(IC50/[Inhibitor])^slope). Data were analyzed on Microsoft Excel for parameter estimation.

The target of the next experiment is IRAK-1 (Homo sapiens (Human), UniProt P51617). Kind of experiment: In vitro IRAK-1 kinase assay. Conditions: purified recombinant IRAK-1, 50 uM ATP, 33P peptide phosphorylation. On the procedure:
Purified recombinant IRAK-4 protein was incubated with 250 uM synthetic peptide ([…]) in 30 ul of kinase buffer including (20 mM MOPS pH7.2, 25 mM beta glycerol phosphate, 5 mM EGTA, 1 mM sodium orthovanadate, 1 mM DTT, 50 uM ATP, 20 mM MgCl2, 10 uCi γ-^33P, 0.1% BSA) for the indicated time. For purified recombinant IRAK-1 protein kinase assay, 50 uM ATP was used. A 25 ul aliquot of the reaction mixture was transferred on to p81 phosphocellulose squares (Upstate Biotechnology, Lake Placid, N.Y.). The assay squares were washed three times with 0.75% phosphoric acid and once with acetone. Enzyme activity was measured by determining the bound radioactivity by liquid scintillation counting.

IRAK-4, sequence (Q9NWZ3 whole entry, species assumed): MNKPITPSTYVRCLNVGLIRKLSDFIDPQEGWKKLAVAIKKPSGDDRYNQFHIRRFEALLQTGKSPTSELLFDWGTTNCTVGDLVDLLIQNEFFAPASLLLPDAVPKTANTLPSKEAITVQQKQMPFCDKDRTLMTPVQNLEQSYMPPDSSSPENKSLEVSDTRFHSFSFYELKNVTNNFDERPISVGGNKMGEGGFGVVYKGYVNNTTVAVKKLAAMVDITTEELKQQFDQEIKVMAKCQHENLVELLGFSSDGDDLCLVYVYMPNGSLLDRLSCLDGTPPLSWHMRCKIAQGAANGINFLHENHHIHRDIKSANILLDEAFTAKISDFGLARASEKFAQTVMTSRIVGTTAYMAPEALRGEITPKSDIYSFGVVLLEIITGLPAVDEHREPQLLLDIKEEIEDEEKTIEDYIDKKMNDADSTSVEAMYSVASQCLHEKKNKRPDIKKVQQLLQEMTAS
IRAK-1, sequence (P51617 whole entry, species assumed): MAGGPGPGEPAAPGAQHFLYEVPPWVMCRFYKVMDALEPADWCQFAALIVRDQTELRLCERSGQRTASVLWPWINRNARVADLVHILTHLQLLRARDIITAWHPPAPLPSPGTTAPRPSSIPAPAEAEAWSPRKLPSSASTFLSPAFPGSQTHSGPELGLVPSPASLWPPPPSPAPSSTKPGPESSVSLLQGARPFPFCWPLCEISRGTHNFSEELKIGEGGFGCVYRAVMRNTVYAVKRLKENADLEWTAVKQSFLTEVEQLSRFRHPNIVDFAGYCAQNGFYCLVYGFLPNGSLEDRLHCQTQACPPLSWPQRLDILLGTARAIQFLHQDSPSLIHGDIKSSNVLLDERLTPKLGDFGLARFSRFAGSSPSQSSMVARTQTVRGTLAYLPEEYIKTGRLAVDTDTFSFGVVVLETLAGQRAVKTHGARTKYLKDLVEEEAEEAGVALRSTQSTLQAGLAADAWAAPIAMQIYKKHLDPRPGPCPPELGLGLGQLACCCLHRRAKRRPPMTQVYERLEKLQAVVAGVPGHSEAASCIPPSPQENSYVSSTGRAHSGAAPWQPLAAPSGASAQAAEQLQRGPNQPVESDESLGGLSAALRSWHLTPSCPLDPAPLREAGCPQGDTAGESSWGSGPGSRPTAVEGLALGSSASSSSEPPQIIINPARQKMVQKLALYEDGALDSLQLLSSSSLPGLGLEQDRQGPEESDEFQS

For the compound `COc1cc2ncccc2cc1NC(=O)c1csc2cnc(N[C@H](C)CO)nc12` [Example 39, 2-(2-Hydroxy-1-methyl-ethylamino)-thieno[3,2-d]pyrimidine-7-carboxylic acid (7-methoxy-quinolin-6-yl)-amide], the figures for the half-maximal inhibitory concentration (IC50) at IRAK-4 and against human full length SYK were 63 nM and 492 nM, respectively.

Take `O=C(Nc1cc(Cl)ccc1OC1CCC(O)CC1)c1cnn2cccnc12` (stereo not drawn) [Example 90, Pyrazolo[1,5-alpha]pyrimidine-3-carboxylic acid [5-chloro-2-(4-hydroxy-cyclohexyloxy)-phenyl]-amide]: the IC50 at IRAK-4 worked out at 459 nM; on human full length SYK, 806 nM.

For the compound `COc1cc2ncccc2cc1NC(=O)c1csc2cnc(NC3CC3)nc12` [Example 43, 2-Cyclopropylamino-thieno[3,2-d]pyrimidine-7-carboxylic acid (7-methoxy-quinolin-6-yl)-amide], the IC50 on IRAK-4 amounted to 74 nM; at human full length SYK, 810 nM; on IRAK-1 it was 575 nM.

For `NCCCOc1cc2ncccc2cc1NC(=O)c1csc2cncnc12` [Example 51, Thieno[3,2-d]pyrimidine-7-carboxylic acid [7-(3-amino-propoxy)-quinolin-6-yl]-amide], the IC50 at IRAK-4 was determined as 103 nM; against human full length SYK, 376 nM; on IRAK-1 it was 529 nM.

Turning to `CC(O)CC(C)Oc1cc2ncccc2cc1NC(=O)c1csc2cncnc12` (stereo not drawn), the IC50 on IRAK-4 was determined as 24 nM; against human full length SYK, 449 nM; on IRAK-1 it was 760 nM.

In the case of `NCC1CCN(c2cc3ncccc3cc2NC(=O)c2csc3cncnc23)CC1` [Example 14, hydrochloride], the IC50 was 12 nM on IRAK-4 and 850 nM at IRAK-1.

As to `O=C(Nc1cc(Cl)ccc1N1CCCCC1)c1cnn2cc(O)cnc12` [Example 20, 6-Hydroxy-pyrazolo[1,5-a]pyrimidine-3-carboxylic acid (5-chloro-2-piperidin-1-yl-phenyl)-amide], the IC50 is 24 nM on IRAK-4 and 644 nM at IRAK-1.

On to `O=C(Nc1cc2ccccc2cc1OC1CCC(O)CC1)c1cnn2cccnc12` (stereo not drawn) [Example 55, Pyrazolo[1,5-alpha]pyrimidine-3-carboxylic acid [3-(4-hydroxy-cyclohexyloxy)-napthalen-2-yl]-amide], for which the IC50 is 124 nM on IRAK-4, 628 nM at human full length SYK and 817 nM at IRAK-1.

Take `O=C(Nc1cc(Cl)ccc1OC1CCC(O)C1)c1cnn2cccnc12` (stereo not drawn) [Example 83, Pyrazolo[1,5-alpha]pyrimidine-3-carboxylic acid [5-chloro-2-(3-hydroxy-cyclopentyloxy)-phenyl]-amide]: the results for the 50% inhibitory concentration (IC50) at IRAK-4 and against human full length SYK were 361 nM and 656 nM, respectively.

`O=C(Nc1cc2cccnc2cc1O[C@@H]1CC[C@H](O)C1)c1csc2cncnc12` [Example 54, hydrochloride]: the values for the IC50 on IRAK-4 and at human full length SYK were 122 nM and 500 nM, respectively.

Regarding `COc1cc2ncccc2cc1NC(=O)c1csc2cnc(NCC(O)CO)nc12` (stereo not drawn) [Example 47, 2-(2,3-Dihydroxy-propylamino)-thieno[3,2-d]pyrimidine-7-carboxylic acid (7-methoxy-quinolin-6-yl)-amide], the 50% inhibitory concentration (IC50) is 82 nM on IRAK-4 and 608 nM on IRAK-1.

With `COc1cc2ncccc2cc1NC(=O)c1csc2cc(CO)cnc12` [Example 30, 6-Hydroxymethyl-thieno[3,{tildeover (2)}beta] pyridine-3-carboxylic acid (7-methoxy-quinolin-6-yl)-amide], the results for the 50% inhibitory concentration (IC50) on IRAK-4 and on human full length SYK were 35 nM and 746 nM, respectively.

As for `O=C1Cc2cc(N3CCC(CO)CC3)c(NC(=O)c3cnn4cccnc34)cc2N1` [Example 34, Pyrazolo[1,5-alpha]pyrimidine-3-carboxylic acid [5-(4-hydroxymethyl-piperidin-1-yl)-2-oxo-2,3-dihydro-1H-indol-6-yl]-amide], the IC50 on IRAK-4 came out at 49 nM; against human full length SYK, 478 nM.

In the case of `CC(C)(CCO)Oc1cc2ncccc2cc1NC(=O)c1csc2cncnc12` [Example 35, Thieno[3,2-d]pyrimidine-7-carboxylic acid [7-(3-hydroxy-1,1-dimethyl-propoxy)-quinolin-6-yl]-amide hydrochloride], the IC50 on IRAK-4 was found to be 49 nM; at IRAK-1, 364 nM.

`COc1cc2ncccc2cc1NC(=O)c1csc2cnc(NCCN)nc12`: the IC50 on IRAK-4 stood at 10 nM; at human full length SYK, 17 nM; at IRAK-1, 712 nM.

Turning to `NCC1CCN(c2ccc(Cl)cc2NC(=O)c2csc3cncnc23)CC1` [Example 64, Thieno[3,2-d]pyrimidine-7-carboxylic acid [2-(4-aminomethyl-piperidin-1-yl)-5-chloro-phenyl]-amide], the half-maximal inhibitory concentration (IC50) is 167 nM on IRAK-4 and 800 nM at IRAK-1.

As for `NC(=O)C1CCN(c2ccc(Cl)cc2NC(=O)c2cnn3cccnc23)CC1` [Example 40, Pyrazolo[1,5-alpha]pyrimidine-3-carboxylic acid [2-(4-carbamoyl-piperidin-1-yl)-5-chloro-phenyl]-amide], the half-inhibitory concentration (IC50) was 69 nM on IRAK-4 and 500 nM at human full length SYK.

With `O=C(Nc1cc2cccnc2cc1OC1CCC(O)CC1)c1cnn2cccnc12` (stereo not drawn) [Example 23], the IC50 on IRAK-4 turned out to be 29 nM; on human full length SYK, 103 nM.

`CC(O)C1CCN(c2ccc(Cl)cc2NC(=O)c2cnn3cccnc23)C1` (stereo not drawn) [Example 44, Pyrazolo[1,{tildeover (5)}-alpha] pyrimidine-3-carboxylic acid {5-chloro-2-[3-(1-hydroxy-ethyl)-pyrrolidin-1-yl]-phenyl}-amide]: the IC50 on IRAK-4 was 76 nM; at IRAK-1 it was 897 nM.

For the compound `COc1ccc(Cl)cc1NC(=O)c1csc2cnc(NCCN)nc12` [Example 53], the IC50 came out at 107 nM on IRAK-4, 350 nM against human full length SYK and 813 nM at IRAK-1.

Consider `COc1cc2ncccc2cc1NC(=O)c1csc2cnc(NCCO)nc12` [Example 45, 2-(2-Hydroxy-ethylamino)-thieno[3,2-d]pyrimidine-7-carboxylic acid (7-methoxy-quinolin-6-yl)-amide], for which the IC50 on IRAK-4 turned out to be 76 nM; at human full length SYK, 216 nM.

One may read the IC50 as the concentration that inhibits the measured activity by half.
